tested on: PI3-K in BT20 cells (phosphorylation of AKT at serine 473); assay: PI3-Kα Cellular Assay (AKT Ser473 phosphorylation ELISA in BT20 cells); format: cell-based, human; settings: Homo sapiens, BT-20, pAKT Ser473 ELISA, 1 hour incubation
Protocol: Compounds of the present invention were evaluated for potency against PI3-K using a cellular assay as follows.
Healthy growing human breast cancer cells BT20 (PI3K mutated) are used for the assay. BT20 cells are grown in 10% FBS+GLN (1:100)+PS (1:100)+1 mM Sodium Pyruvate+0.1 mM Sodium Bicarbonate+Non-Essential Amino Acids Solution (1:100) MEM medium (MEM+all). […] The cells are re-suspended in 10% FBS MEM all and are centrifuged down at 1400 rpm for 5 minutes. The cells are re-suspended in 0.5% FBS MEM all and are counted on a cell counter. The cells are seeded at 25,000 cells/well in volume of 100 μL/well in 0.5% FBS MEM all in a 96 well flat-bottom plate. The negative control wells receive only 100 μL of 0.5% FBS MEM all medium without cells. The plate is incubated overnight in a cell culture incubator with 5% CO2 at 37° C.
On day 2, testing compounds are prepared in 0.5% FBS MEM all medium and serially diluted at 1:3 for 11 test concentrations. Each concentration of the compounds is tested in duplicate. The compound solutions are added at 25 μL/well to the corresponded wells in cell plate, and 25 μL/well of the vehicle (0.5% DMSO in 0.5% FBS MEM all) is added to the negative control wells (no cells) and the positive control wells (cells without compounds). The plate is incubated for 1 hour in a cell culture incubator with 5% CO2 at 37° C. After 1 hour of incubation, the medium is removed, 100 μL/well of cell lysis buffer is added into the cell plate, and shake for 15 minutes at room temperature. […] After 1 hour, empty the contents of the wells, wash the plate 4 times with the wash buffer, and add 100 μL of TMB substrate solution (catalog #T0440, Sigma) into each well, and incubate with gentle shaking at room temperature for […]. After 15 minutes of color development, add 100 μL of stop solution (1N hydrochloric acid) to each well, and read the plate at 450 nm on ELISA plate reader.

| Compound | IC50 |
| --- | --- |
| Cc1nc(N)nc2c1cc(-c1cn[nH]c1)c(=O)n2C1CCCC1 [Compound 101, 2-amino-8-cyclopentyl-6-(1H-pyrazol-4-yl)-4-methylpyrido[2,3-d]pyrimidin-7(8H)-one] | 3.49 nM |
| CCNc1nc(C)c2cc(CCC(N)=O)c(=O)n(C3CCCC3)c2n1 [Compound 118, 3-[8-cyclopentyl-2-(ethylamino)-4-methyl-7-oxo-7,8-dihydropyrido[2,3-d]pyrimidin-6-yl]propanamide] | 8370 nM |
| CCNc1nc(C)c2cc(CCC(=O)Nc3ccccn3)c(=O)n(C3CCCC3)c2n1 [Compound 122, 3-[8-cyclopenlyl-2-(ethylamino)-4-methyl-7-oxo-7,8-dihydropyrido[2,3-d]pyrimidin-6-yl]-N-pyridin-2-ylpropanamide] | 10000 nM |
| Cc1nc(N)nc2c1cc(-c1cccnc1N)c(=O)n2C1CCCC1 [Compound 125, 2-amino-6-(2-aminopyridin-3-yl)-8-cyclopentyl-4-methylpyrido[2,3-d]pyrimidin-7(8H)-one] | 9010 nM |
| CCNc1nc(C)c2cc(-c3ccc(O)c(OC)c3)c(=O)n(C3CCCC3)c2n1 [Compound 136, 8-cyclopentyl-2-(ethylamino)-6-(4-hydroxy-3-methoxyphenyl)-4-methylpyrido[2,3-d]pyrimidin-7(8H)-one] | 26.3 nM |
| CCNc1nc(C)c2cc(-c3ccc(OC)nc3)c(=O)n(C3CCCC3)c2n1 [Compound 139, 8-cyclopentyl-2-(ethylamino)-6-(6-methoxypyridin-3-yl)-4-methylpyrido[2,3-d]pyrimidin-7(8H)-one] | 17 nM |
| CNc1nc(C)c2cc(-c3ccc(OC)nc3)c(=O)n(C3CCCC3)c2n1 [Compound 140] | 0.793 nM |
| CCOC(=O)c1cccc(-c2cc3c(C)nc(NC)nc3n(C3CCCC3)c2=O)c1 [Compound 141, ethyl 3-[8-cyclopentyl-4-methyl-2-(methylamino)-7-oxo-7,8-dihydropyrido[2,3-d]pyrimidin-6-yl]benzoate] | 10000 nM |
| CCNc1nc(C)c2cc(-c3cccc(O)c3)c(=O)n(C3CCCC3)c2n1 [Compound 144, 8-cyclopentyl-2-(ethylamino)-6-(3-hydroxyphenyl)-4-methylpyrido[2,3-d]pyrimidin-7(8H)-one] | 3.05 nM |
| Cc1nc(N)nc2c1cc(Br)c(=O)n2[C@H]1CC[C@H](O)CC1 [Compound 157, 2-amino-6-bromo-8-(trans-4-hydroxycyclohexyl)-4-methylpyrido[2,3-d]pyrimidin-7(8H)-one] | 305 nM |
| Cc1nc(N)nc2c1cc(Br)c(=O)n2[C@@H]1CC[C@H](O)C1 [Compound 160, 2-amino-6-bromo-8-[(1R,3S)-3-hydroxycyclopentyl]-4-methylpyrido[2,3-d]pyrimidin-7(8H)-one] | 1040 nM |
| Cc1nc(N)nc2c1cc(-c1cnn(C)c1)c(=O)n2[C@@H]1CC[C@H](O)C1 [Compound 161, 2-amino-8-[(1R,3S)-3-hydroxycyclopentyl]-4-methyl-6-(1-methyl-1H-pyrazol-4-yl)pyrido[2,3-d]pyrimidin-7(8H)-one] | 934 nM |
| Cc1nc(N)nc2c1cc(-c1cn[nH]c1)c(=O)n2[C@@H]1CC[C@H](O)C1 [Compound 162, 2-amino-8-[(1R,3S)-3-hydroxycyclopentyl]-4-methyl-6-(1H-pyrazol-4-yl)pyrido[2,3-d]pyrimidin-7(8H)-one] | 47.2 nM |
| Cc1nc(N)nc2c1cc(-c1cnn(C)c1)c(=O)n2[C@@H]1CC[C@@H](O)C1 [Compound 164, 2-amino-8-[(1R,3R)-3-hydroxycyclopentyl]-4-methyl-6-(1-methyl-1H-pyrazol-4-yl)pyrido[2,3-d]pyrimidin-7(8H)-one] | 1300 nM |
| Cc1nc(N)nc2c1cc(-c1cn[nH]c1)c(=O)n2[C@@H]1CC[C@@H](O)C1 [Compound 166, 2-amino-8-[(1R,3R)-3-hydroxycyclopentyl]-4-methyl-6-(1H-pyrazol-4-yl)pyrido[2,3-d]pyrimidin-7(8H)-one] | 262 nM |
| Cc1nc(N)nc2c1cc(Br)c(=O)n2CC(C)(C)O [Compound 167, 2-amino-6-bromo-8-(2-hydroxy-2-methylpropyl)-4-methylpyrido[2,3-d]pyrimidin-7(8H)-one] | 2360 nM |
| COc1ccc(-c2cc3c(C)nc(N)nc3n(CC(C)(C)O)c2=O)cn1 [Compound 169, 2-amino-8-(2-hydroxy-2-methylpropyl)-6-(6-methoxypyridin-3-yl)-4-methylpyrido[2,3-d]pyrimidin-7(8H)-one] | 340 nM |

| Compound | IC50 |
| --- | --- |
| Cc1nc(N)nc2c1cc(-c1cnc3[nH]ccc3c1)c(=O)n2CC(C)(C)O [Compound 172, 2-amino-8-(2-hydroxy-2-methylpropyl)-4-methyl-6-(1H-pyrrolo[2,3-b]pyridin-5-yl)pyrido[2,3-d]pyrimidin-7(8H)-one] | 116 nM |
| COc1ccc(-c2cc3c(C)nc(N)nc3n([C@H]3CC[C@@H](O)CC3)c2=O)cn1 [Compound 174, 2-amino-8-(cis-4-hydroxycyclohexyl)-6-(6-methoxypyridin-3-yl)-4-methylpyrido[2,3-d]pyrimidin-7(8H)-one] | 19 nM |
| Cc1nc(N)nc2c1cc(-c1cn[nH]c1)c(=O)n2C1CCC(=O)CC1 [Compound 176, 2-amino-4-methyl-8-(4-oxocyclohexyl)-6-(1H-pyrazol-4-yl)pyrido[2,3-d]pyrimidin-7(8H)-one] | 4.66 nM |
| COc1ncc(-c2cc3c(C)nc(N)nc3n([C@H]3CC[C@@H](O)CC3)c2=O)cc1F [Compound 177] | 8.02 nM |
| COc1ncc(-c2cc3c(C)nc(N)nc3n([C@H]3CC[C@H](OC)CC3)c2=O)cc1F [Compound 180, 2-amino-6-(5-fluoro-6-methoxypyridin-3-yl)-8-(trans-4-methoxycyclohexyl)-4-methylpyrido[2,3-d]pyrimidin-7(8H)-one] | 3.39 nM |
| Cc1nc(N)nc2c1cc(-c1ccc(N(C)C)nc1)c(=O)n2[C@H]1CC[C@@H](O)CC1 [Compound 181, 2-amino-6-[6-(dimethylamino)pyridin-3-yl]-8-(cis-4-hydroxycyclohexyl)-4-methylpyrido[2,3-d]pyrimidin-7(8H)-one] | 17.6 nM |
| CO[C@H]1CC[C@H](n2c(=O)c(-c3cn[nH]c3)cc3c(C)nc(N)nc32)CC1 [Compound 183, 2-amino-8-(trans-4-methoxycyclohexyl)-4-methyl-6-(1H-pyrazol-4-yl)pyrido[2,3-d]pyrimidin-7(8H)-one] | 4.69 nM |
| COc1ncc(-c2cc3c(C)nc(N)nc3n([C@H]3CC[C@H](O)CC3)c2=O)cc1F [Compound 191, 2-amino-6-[5-fluoro-6-methoxypyridin-3-yl)-8-(trans-4-hydroxycyclohexyl)-4-methylpyrido[2,3-d]pyrimidin-7(8H)-one] | 3.1 nM |
| COc1ccc(-c2cc3c(C)nc(N)nc3n(C3CCOCC3)c2=O)cn1 [Compound 200, 2-amino-6-(6-methoxypyridin-3-yl)-4-methyl-8-(tetrahydro-2H-pyran-4-yl)pyrido[2,3-d]pyrimidin-7(8H)-one] | 71.4 nM |
| Cc1nc(N)nc2c1cc(-c1cn[nH]c1)c(=O)n2CC1CCOC1 (stereo not drawn) [Compound 219, 2-amino-4-methyl-6-(1H-pyrazol-4-yl)-8-((tetrahydrofuran-3-yl)methyl)pyrido[2,3-d]pyrimidin-7(8H)-one] | 94.9 nM |
| COc1ccc(-c2cc3c(C)nc(N)nc3n(CC3CCOC3)c2=O)cn1 (stereo not drawn) [Compound 220, 2-amino-6-(6-methoxypyridin-3-yl)-4-methyl-8-((tetrahydrofuran-3-yl)methyl)pyrido[2,3-d]pyrimidin-7(8H)-one] | 145 nM |
| Cc1nc(N)nc2c1cc(-c1cn[nH]c1)c(=O)n2CC1CCCO1 (stereo not drawn) [Compound 223, 2-amino-4-methyl-6-(1H-pyrazol-4-yl)-8-((tetrahydrofuran-2-yl)methyl)pyrido[2,3-d]pyrimidin-7(8H)-one] | 249 nM |
| Cc1nc(N)nc2c1cc(-c1cnn(C)c1)c(=O)n2C1CCCC1 [Compound 235, 2-Amino-8-cyclopentyl-4-methyl-6-(1-methyl-1H-pyrazol-yl)-8H-pyrido[2,3-d]pyrimidin-7-one] | 623 nM |
| CNc1nc(C)c2cc(-c3ccc(OC)nc3)c(=O)n(CCN)c2n1 [Compound 239, 8-(2-Amino-ethyl)-6-(6-methoxy-pyridin-3-yl)-4-methyl-2-methylamino-8H-pyrido[2,3-d]pyrimidin-7-one] | 1270 nM |
| COc1ccc(-c2cc3c(C)nc(N)nc3n(CC(C)C)c2=O)cn1 [Compound 241, 2-Amino-8-isobutyl-6-(6-methoxy-pyridin-3-yl)-4-methyl-8H-pyrido[2,3-d]pyrimidin-7-one] | 79.3 nM |
| COc1ncc(-c2cc3c(C)nc(N)nc3n(C3CCCC3)c2=O)cc1F [Compound 254, 2-amino-8-cyclopentyl-6-(5-fluoro-6-methoxypyridin-3-yl)-4-methylpyrido[23-d]pyrimidin-7(8H)-one] | 7.92 nM |

— patent US8633204B2 (Pfizer Inc., priority 2006, dated 2014)
